For 59 molecules, activity change, negative = toxicity results are on record in PubChem BioAssay AID624265 (Broad Institute, 2012).

Activity calls are given as the source filed them.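 The calls were made as follows: active = at a dose no more than twice the top valid tested dose, the fitted curve drops below -35% activity change; inactive = the rest, rising-direction activity included.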

A short description of this experiment: cytotoxicity in NIH3T3 fibroblasts, dose response, cytotoxicity control for HSP40 inhibitor project, cell-based, CellTiter-Glo luminescence, cherry-pick, set 2 (AID 624265).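 Also: cells exposed to compound for 48 hours before the ATP read; 0% = median neutral control signal and -100% = no luminescence left.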 Conditions: NIH3T3 viability, CellTiter-Glo ATP luminescence.

Take `C=CCn1c(-c2cc(-c3ccc(C)cc3)nc3ccccc23)n[nH]c1=S`: the activity change, negative = toxicity (at 50 µM (top of the series)) was 15.5% (inactive). Turning to `CC(C)CSc1n[nH]c(=S)s1`, the activity change, negative = toxicity (at 50 µM (top of the series)) was 9% (inactive). With `CCCCCOc1ccc(CSc2n[nH]c(C)n2)cc1`, for the setting “at 50 µM (top of the series)”, the activity change, negative = toxicity is 5.34% (inactive).

As to `CC1Oc2ccccc2C=C1/C=N/Nc1ccc(C(=O)O)cc1` (centres undefined), the activity change, negative = toxicity (at 50 µM (top of the series)) is 1.68% (inactive). Same read-out and setting: next, `Nc1nc(-c2ccc(Oc3ccccc3)cc2)cs1`: 6.84% (inactive); `Cc1ccc(NC(=S)c2nc3ccccc3[nH]2)c(C)c1`: -2.47% (inactive); `CCOC(=O)c1cnc(-n2nc(C)cc2C)nc1NC1CCCC1`: 37.9% (inactive). Still for that read-out and setting: next, `Cc1cccc(Nc2nc(-c3ccc(O)cc3O)cs2)n1`: 0.061% (inactive); `Cc1ccc(Sc2cc(C)nc(-c3ccccn3)n2)cc1`: 11.7% (inactive).

Take `Cc1ccc(NC2(c3nnnn3-c3c(C)cccc3C)CCCCC2)cc1`: where the note is “at 50 µM (top of the series)”, the activity change, negative = toxicity was 0.981% (inactive). `O=S(=O)(c1ccc(Cl)cc1)N1CCC2(CC1)OCCN2S(=O)(=O)c1cccs1`: the activity change, negative = toxicity (at 50 µM (top of the series)) was -0.748% (inactive). The same measure, in the same setting: next, `O=C(CN1CC[n+]2c(-c3cccs3)csc21)c1ccc(-c2ccccc2)cc1`: 28% (inactive); `COc1cc([N+](=O)[O-])cc(/C=N/NC(=O)c2cncc(Br)c2)c1O`: -13.4% (inactive). Regarding `O=C(O)CSc1nc(-c2ccc(Cl)cc2)nc2c1oc1ccccc12`, the activity change, negative = toxicity (at 50 µM (top of the series)) was -3.22% (inactive). Same read-out and setting: next, `CCn1c2ccc(C)cc2c2nc3cc(C(=O)O)ccc3nc21`: -4.25% (inactive). `C(=C1c2ccccc2-c2ccccc21)c1ccncc1`: the activity change, negative = toxicity (at 50 µM (top of the series)) was 14.2% (inactive). Turning to `Cc1cc(Cl)ccc1C(=O)C1CCCN(C(=O)c2cncs2)C1` (centres undefined), the activity change, negative = toxicity (at 50 µM (top of the series)) was 14.2% (inactive).

With `CC(C)NC(=O)NC(=O)COC(=O)c1ccc([N+](=O)[O-])cc1Cl`, the activity change, negative = toxicity (at 50 µM (top of the series)) is -6.58% (inactive). As to `Cc1cc(C)c(C(=O)CC(=O)c2cccnc2)c(C)c1`, the activity change, negative = toxicity (at 50 µM (top of the series)) is 8.73% (inactive). On to `CCCCNc1c(-c2ccc(-c3ccc(OC)cc3)c(OC)c2)nc2ccccn12`, for which, for the setting “at 50 µM (top of the series)”, the activity change, negative = toxicity is 2.06% (inactive). Take `COc1cc2cnc(-c3ccccc3)c(C(=O)c3ccc(F)cc3)c2cc1OC`: where the note is “at 50 µM (top of the series)”, the activity change, negative = toxicity is 26.6% (inactive). Regarding `CC(C)(C)C(=O)C(Oc1ccc(Cl)cc1)n1cncn1` (centres undefined), the activity change, negative = toxicity (at 50 µM (top of the series)) was 9.05% (inactive). Still for that read-out and setting: next, `COc1ccc(-c2cc(C(=O)N3CCN(c4ccccc4F)CC3)c3ccccc3n2)c(OC)c1`: -9.73% (inactive); `c1ccc(-c2ccc(OCCCn3cncn3)cc2)cc1`: 5.17% (inactive); `O=c1c2ccccc2nc(-c2ccc(-c3ccccc3)cc2)n1-c1ccncc1`: 4% (inactive).

On to `Cc1ccc(O)c(-c2cc(-c3ccccc3C)[nH]n2)c1`, for which the activity change, negative = toxicity (at 50 µM (top of the series)) was -5.19% (inactive). As for `CC1=NN(C(N)=S)C(=O)C1N=Nc1cccc(Cl)c1C` (centres undefined), the activity change, negative = toxicity (at 50 µM (top of the series)) is -14.8% (inactive). As to `CCOc1ccc(N/N=C(/C#N)C(N)=O)cc1`, the activity change, negative = toxicity (at 50 µM (top of the series)) is 9.15% (inactive). For `COc1cc(/C=N/O)cc(Br)c1OCc1cccc(Cl)c1`, for the setting “at 50 µM (top of the series)”, the activity change, negative = toxicity is 3.56% (inactive). As for `CN(C)c1ccc(C=c2c3cc(O)ccc3n3c2cc(-c2ccccc2)[n+]3C)cc1`, the activity change, negative = toxicity (at 50 µM (top of the series)) is 3.47% (inactive). As to `O=C(Nc1nnc(SCc2ccc(F)cc2)s1)c1ccccn1`, the activity change, negative = toxicity (at 50 µM (top of the series)) is 5.25% (inactive). As for `Cc1csc(NC(=O)C(C)Oc2ccc(Cl)cc2C)n1` (centres undefined), the activity change, negative = toxicity (at 50 µM (top of the series)) is 8.91% (inactive).

For `Cc1ccc(NS(=O)(=O)c2ccc(N3CCN(c4ccc(O)cc4)CC3)c([N+](=O)[O-])c2)c(C)c1`, the activity change, negative = toxicity (at 50 µM (top of the series)) was 24.6% (inactive). The same measure, in the same setting: the value for `O=[N+]([O-])c1cccc(C=NNc2ccc3ccccc3n2)c1O` was -29.6% (inactive); that for `COc1ccc2[nH]c(=O)c(CN(Cc3cccnc3)C(=O)Nc3ccccc3)cc2c1` was -11.7% (inactive); that for `C=C(C)COc1ccc(-c2[nH]ncc2-c2ccc(Br)cc2)c(O)c1` was 1.03% (inactive).

As for `COC(=O)COC(=O)c1ccccc1NC(=O)c1ccccc1`, the activity change, negative = toxicity (at 50 µM (top of the series)) was -14.7% (inactive). Consider `CC(/C=N/n1c(COc2ccccc2)n[nH]c1=S)=C\c1ccccc1`, for which, where the note is “at 50 µM (top of the series)”, the activity change, negative = toxicity was 14.6% (inactive).

For `CC(C)(C)n1nc(Cc2cccc3ccccc23)c2c(N)ncnc21`, the activity change, negative = toxicity (at 50 µM (top of the series)) is 9.94% (inactive). In the case of `Cc1nc2ccc(C(=O)NCc3ccc4c(c3)OCO4)cc2s1`, the activity change, negative = toxicity (at 50 µM (top of the series)) was 1.22% (inactive). In the case of `C[C@@]12CCC3[C@@](CCC4[C@@]3(C)CCC[C@@]4(C)C(=O)NCc3ccccc3)(CC1=O)C2` (some centres undefined), the activity change, negative = toxicity (at 50 µM (top of the series)) is 2.89% (inactive). Consider `O=C(Oc1c(Cl)cc(Cl)c2cccnc12)c1cccs1`, for which the activity change, negative = toxicity (at 50 µM (top of the series)) was 19% (inactive). Turning to `Cc1ccccc1Oc1nc(-c2ccccn2)nc2ccccc12`, the activity change, negative = toxicity (at 50 µM (top of the series)) is 6.99% (inactive). Take `CC(=O)NC(c1cccc([N+](=O)[O-])c1)c1ccc2cccnc2c1O` (centres undefined): the activity change, negative = toxicity (at 50 µM (top of the series)) was -27.2% (inactive).

On to `O=c1cc(CSc2ccc(Cl)cc2)nc(-c2ccccn2)[nH]1`, for which the activity change, negative = toxicity (at 50 µM (top of the series)) was 20.7% (inactive). Still for that read-out and setting: the value for `Cc1ccc(C)c(/C=C/C(=O)c2ccccc(=O)c2O)c1` was -4.58% (inactive); that for `Clc1ccccc1C(c1ccccc1)(c1ccccc1)n1ccnc1` was 10.3% (inactive). With `CCCCn1c(=O)c(C(=O)NCc2ccncc2)c(O)c2ccccc21`, the activity change, negative = toxicity (at 50 µM (top of the series)) is 25% (inactive). With `C=CCNc1nc(-c2ccccn2)nnc1-c1ccccc1`, under “at 50 µM (top of the series)”, the activity change, negative = toxicity was -23.8% (inactive). For the molecule `O/N=C(\c1ccc(Cl)cc1Cl)c1ncc(C(F)(F)F)cc1Cl`, under “at 50 µM (top of the series)”, the activity change, negative = toxicity was -0.787% (inactive). For `O=C(NCc1ccncc1)c1ccccc1Nc1ccc(SC(F)F)cc1`, for the setting “at 50 µM (top of the series)”, the activity change, negative = toxicity was 3.29% (inactive). On the same count and under the same terms, next, `COc1ccccc1-c1sc2cc3c(cc2c1C#Cc1cncn1C)OCO3`: 17.2% (inactive); `CCCC1CCC(c2ccc(/C(N)=N/O)cc2)CC1` (centres undefined): -4% (inactive).

For `Cc1cccc(NC(=S)NC(C)CCc2ccccc2)c1` (centres undefined), where the note is “at 50 µM (top of the series)”, the activity change, negative = toxicity is 12.9% (inactive). On to `CCCCCCn1c(=O)c(C(=O)Nc2ncccc2C)c(O)c2ccccc21`, for which the activity change, negative = toxicity (at 50 µM (top of the series)) was 6.84% (inactive). With `O=C(CCCSc1ccccc1)Nc1nc(-c2ccccn2)cs1`, the activity change, negative = toxicity (at 50 µM (top of the series)) was -1.21% (inactive).

Turning to `O=C1Nc2c(Br)cccc2C1=O`, the activity change, negative = toxicity (at 50 µM (top of the series)) was -1.42% (inactive). Still for that read-out and setting: the value for `O=S1OC(c2ccccc2)c2cc(Cl)ccc21` (centres undefined) was 8.75% (inactive). `CC(C)C(=O)NC(c1ccco1)c1ccc2cccnc2c1O` (centres undefined): the activity change, negative = toxicity (at 16 µM (top of the series)) was -30% (inactive).
